Experimental data as given in patent US20100267561A1, “HERBICIDAL PYRIDAZINONE DERIVATIVES” (priority 2007, published 2010).
Read-outs that look alike come from different tables or passages of the source.

Tests used:
Assay in all cases: Test B pre-/postemergence plant response
Format in all cases: in vivo
[1] = system: blackgrass (Alopecurus myosuroides); settings: for pest or weed control at 31 g/ha: 31 g ai/ha, 100 complete control; for pest or weed control at 62 g/ha: 62 g ai/ha; for pest or weed control at 125 g/ha: 125 g ai/ha
Method in brief: (§1)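 Preemergence and postemergence (plants 2-18 cm, 1- to 4-leaf stage) applications used test chemicals in a non-phytotoxic solvent with surfactant. Plants were held in a greenhouse 13 to 15 days, then rated visually against controls on a 0-100 scale (0 no effect, 100 complete control).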

[2] = system: catchweed bedstraw (Galium aparine); settings: Galium aparine, pre-emergence, Preemergence, read-out: Plant response rating, Galium
Method in brief: as §1

[3] = system: cocklebur (Xanthium strumarium); settings: Xanthium strumarium, read-out: Plant response rating, Cocklebur; for pest or weed control at 31 g/ha: 31 g ai/ha, 100 complete control; for pest or weed control at 62 g/ha: 62 g ai/ha; for pest or weed control at 62 g/ha / pest or weed control at 125 g/ha / pest or weed control at 250 g/ha: scale 0 to 100; for pest or weed control at 125 g/ha: 125 g ai/ha; for pest or weed control at 250 g/ha: 250 g ai/ha
Method in brief: as §1

[4] = system: common ragweed (Ambrosia elation); settings: Ambrosia, read-out: Plant response rating, Ragweed; for pest or weed control at 31 g/ha: 31 g ai/ha, 100 complete control; for pest or weed control at 62 g/ha: 62 g ai/ha; for pest or weed control at 62 g/ha / pest or weed control at 125 g/ha / pest or weed control at 250 g/ha: scale 0 to 100; for pest or weed control at 125 g/ha: 125 g ai/ha; for pest or weed control at 250 g/ha: 250 g ai/ha
Method in brief: as §1

corn (Zea mays) = settings: Zea mays; for Corn plant response rating (crop injury, 0 = no effect, 100 = complete kill) at 31 g/ha: 31 g ai/ha, 100 complete control; for Corn plant response rating (crop injury, 0 = no effect, 100 = complete kill) at 62 g/ha: 62 g ai/ha; for Corn plant response rating (crop injury, 0 = no effect, 100 = complete kill) at 62 g/ha / Corn plant response rating (crop injury, 0 = no effect, 100 = complete kill) at 125 g/ha / Corn plant response rating (crop injury, 0 = no effect, 100 = complete kill) at 250 g/ha: scale 0 to 100; for Corn plant response rating (crop injury, 0 = no effect, 100 = complete kill) at 125 g/ha: 125 g ai/ha; for Corn plant response rating (crop injury, 0 = no effect, 100 = complete kill) at 250 g/ha: 250 g ai/ha
Method in brief: as §1

[5] = system: goosegrass (Eleusine indica); settings: Eleusine indica, read-out: Plant response rating, Goosegrass; for pest or weed control at 31 g/ha: 31 g ai/ha, 100 complete control; for pest or weed control at 62 g/ha: 62 g ai/ha; for pest or weed control at 62 g/ha / pest or weed control at 125 g/ha / pest or weed control at 250 g/ha: scale 0 to 100; for pest or weed control at 125 g/ha: 125 g ai/ha; for pest or weed control at 250 g/ha: 250 g ai/ha
Method in brief: as §1

[6] = system: johnsongrass (Sorghum halepense); settings: Sorghum halepense, post-emergence, Postemergence, read-out: Plant response rating, Johnsongrass
Method in brief: as §1

[7] = Alopecurus myosuroides, post-emergence, Postemergence, scale 0 to 100, read-out: Plant response rating, Blackgrass
[8] = Alopecurus myosuroides, pre-emergence, Preemergence, scale 0 to 100, read-out: Plant response rating, Blackgrass
[9] = post-emergence, Postemergence, scale 0 to 100, 0 no effect
[10] = pre-emergence, Preemergence, 0 to 100 scale, 0 no effect

## Cc1cc(-c2ccc(C(F)(F)F)cc2)nn1-c1c(O)cnn(C)c1=O [Compound 1, 5-hydroxy-2-methyl-4-[5-methyl-3-[4-(trifluoromethyl)phenyl]-1H-pyrazol-1-yl]-3(2H)-pyridazinone]
[1]; 250 g ai/ha, preemergence, 0-100 scale
  Blackgrass plant response rating: 100
[1]; Alopecurus myosuroides, post-emergence, Postemergence, scale 0 to 100, 0 no effect, read-out: Plant response rating, Blackgrass
  pest or weed control at 31 g/ha: 20%
[1]; [7]
  pest or weed control at 62 g/ha: 90%
  pest or weed control at 125 g/ha: 100%
[1]; Alopecurus myosuroides, post-emergence, Postemergence, 250 g ai/ha, scale 0 to 100, read-out: Plant response rating, Blackgrass
  pest or weed control at 250 g/ha: 100%
[1]; Alopecurus myosuroides, pre-emergence, Preemergence, 0 to 100 scale, 0 no effect, read-out: Plant response rating, Blackgrass
  pest or weed control at 31 g/ha: 100%
[1]; [8]
  pest or weed control at 62 g/ha: 100%
  pest or weed control at 125 g/ha: 100%
[2]; 31 g ai/ha, 0 to 100 scale, 0 no effect, 100 complete control
  pest or weed control at 31 g/ha: 0%
[2]; 62 g ai/ha, scale 0 to 100
  pest or weed control at 62 g/ha: 0%
[2]; 125 g ai/ha, scale 0 to 100
  pest or weed control at 125 g/ha: 0%
[2]; 250 g ai/ha, scale 0 to 100
  pest or weed control at 250 g/ha: 0%
[3]; [9]
  pest or weed control at 31 g/ha: 0%
[3]; post-emergence, Postemergence
  pest or weed control at 62 g/ha: 0%
  pest or weed control at 125 g/ha: 0%
  pest or weed control at 250 g/ha: 0%
[3]; [10]
  pest or weed control at 31 g/ha: 0%
[3]; pre-emergence, Preemergence
  pest or weed control at 62 g/ha: 0%
  pest or weed control at 125 g/ha: 0%
  pest or weed control at 250 g/ha: 0%
[4]; [9]
  pest or weed control at 31 g/ha: 0%
[4]; post-emergence, Postemergence
  pest or weed control at 62 g/ha: 0%
  pest or weed control at 125 g/ha: 50%
  pest or weed control at 250 g/ha: 55%
[4]; [10]
  pest or weed control at 31 g/ha: 0%
[4]; pre-emergence, Preemergence
  pest or weed control at 62 g/ha: 0%
  pest or weed control at 125 g/ha: 0%
  pest or weed control at 250 g/ha: 0%
Corn (Zea mays); [9]
  Corn plant response rating (crop injury, 0 = no effect, 100 = complete kill) at 31 g/ha: 10%
Corn (Zea mays); post-emergence, Postemergence
  Corn plant response rating (crop injury, 0 = no effect, 100 = complete kill) at 62 g/ha: 100%
  Corn plant response rating (crop injury, 0 = no effect, 100 = complete kill) at 125 g/ha: 100%
  Corn plant response rating (crop injury, 0 = no effect, 100 = complete kill) at 250 g/ha: 100%
Corn (Zea mays); [10]
  Corn plant response rating (crop injury, 0 = no effect, 100 = complete kill) at 31 g/ha: 90%
Corn (Zea mays); pre-emergence, Preemergence
  Corn plant response rating (crop injury, 0 = no effect, 100 = complete kill) at 62 g/ha: 95%
  Corn plant response rating (crop injury, 0 = no effect, 100 = complete kill) at 125 g/ha: 100%
  Corn plant response rating (crop injury, 0 = no effect, 100 = complete kill) at 250 g/ha: 100%
[5]; [9]
  pest or weed control at 31 g/ha: 30%
[5]; post-emergence, Postemergence
  pest or weed control at 62 g/ha: 30%
  pest or weed control at 125 g/ha: 50%
  pest or weed control at 250 g/ha: 85%
[5]; [10]
  pest or weed control at 31 g/ha: 50%
[5]; pre-emergence, Preemergence
  pest or weed control at 62 g/ha: 50%
  pest or weed control at 125 g/ha: 100%
  pest or weed control at 250 g/ha: 100%
[6]; 31 g ai/ha, scale 0 to 100, 0 no effect, 100 complete control
  pest or weed control at 31 g/ha: 60%
[6]; 62 g ai/ha, scale 0 to 100
  pest or weed control at 62 g/ha: 90%
[6]; 125 g ai/ha, scale 0 to 100
  pest or weed control at 125 g/ha: 100%
[6]; 250 g ai/ha, scale 0 to 100
  pest or weed control at 250 g/ha: 100%
